Test results published in patent US6716858B1, “Methods for inhibiting diabetic complications” (Kansas University Medical Center, priority 1995, dated 2004).

B1: NaBH4-reduced: Amadori-RSA reduced with NaBH4 (protein, UniProt P02770 25-608, looked up)
Albumin: EAHKSEIAHRFKDLGEQHFKGLVLIAFSQYLQKCPYEEHIKLVQEVTDFAKTCVADENAENCDKSIHTLFGDKLCAIPKLRDNYGELADCCAKQEPERNECFLQHKDDNPNLPPFQRPEAEAMCTSFQENPTSFLGHYLHEVARRHPYFYAPELLYYAEKYNEVLTQCCTESDKAACLTPKLDAVKEKALVAAVRQRMKCSSMQRFGERAFKAWAVARMSQRFPNAEFAEITKLATDVTKINKECCHGDLLECADDRAELAKYMCENQATISSKLQACCDKPVLQKSQCLAEIEHDNIPADLPSIAADFVEDKEVCKNYAEAKDVFLGTFLYEYSRRHPDYSVSLLLRLAKKYEATLEKCCAEGDPPACYGTVLAEFQPLVEEPKNLVKTNCELYEKLGEYGFQNAVLVRYTQKAPQVSTPTLVEAARNLGRVGTKCCTLPEAQRLPCVEDYLSAILNRLCVLHEKTPVSEKVTKCCSGSLVERRPCFSALTVDETYVPKEFKAETFTFHSDICTLPDKEKQIKKQTALAELVKHKPKATEDQLKTVMGDFAQFVDKCCKAADKDNCFATEGPNLVARSKEALA
modifications: ribose-glycated, NaBH4-reduced

Columns and labels:
[1] = system: post-Amadori AGE formation, RNase Amadori intermediate; experiment: Interrupted (post-Amadori) ribose glycation assay, RNase; type: biochemical, bovine
Procedure: (§1) ELISA detection of AGE products. The general method of Engvall (1981, Methods Enzymol. 70:419-439) was used to perform the ELISA. Typically, glycated protein samples were diluted to approximately 1.5 ug/ml in 0.1 M sodium carbonate buffer of pH 9.5 to 9.7. The protein was coated overnight at room temperature onto 96-well polystyrene plates by pippetting 200 ul of the protein solution in each well (0.3 ug/well). After coating, the protein was washed from the wells with a saline solution containing 0.05% Tween-20. The wells were then blocked with 200 ul of 1% casein in carbonate buffer for 2 h at 37° C. followed by washing. Rabbit anti-AGE antibodies were diluted at a titer of about 1:350 in incubation buffer, and incubated for 1 h at 37° C., followed by washing. In order to minimize background readings, antibodies R479 used to detect glycated RNase were raised against glycated BSA, and antibodies R618 used to detect glycated BSA and glycated Hb were raised against glycated RNase. An alkaline phosphatase-conjugated antibody to rabbit IgG was then added as the secondary antibody at a titer of 1:2000 or 1:2500 (depending on lot) and incubated for 1 h at 37° C., followed by washing. The p-nitrophenylphosphate substrate solution was then added (200 ul/well) to the plates, with the absorbance of the released p-nitrophenolate being monitored at 410 nm with a Dynatech MR 4000 microplate reader.
Glycation Modifications Modification with ribose or glucose was generally done at 37° C. in 0.4 M phosphate buffer of pH 7.5 containing 0.02% sodium azide. The high buffer concentration was always used with 0.5 M ribose modifications. The solutions were kept in capped tubes and opened only to remove timed aliquots that were immediately frozen for later carrying out the various analyses. “Interrupted glycation” experiments were carried out by first incubating protein with the ribose at 37° C. for 8 or 24 h, followed by immediate and extensive dialysis against frequent cold buffer changes at 4° C. The samples were then reincubated by quickly warming to 37° C. in the absence of external ribose. Aliquots were taken and frozen at various intervals for later analysis. Due to the low molecular weight of RNase, protein concentrations were remeasured after dialysis even when low molecular weight cut-off dialysis tubing was used. An alternative procedure was also devised (see below) in which interruption was achieved by simple 100-fold dilution from reaction mixtures containing 0.5 M ribose. Protein concentrations were estimated from UV spectra. The difference in molar extinction between the peak (278 nm) and trough (250 nm) was used for RNase concentration determinations in order to compensate for the general increase in UV absorbance that accompanies glycation. Time-dependent UV-difference spectral studies were carried out to characterize the glycation contributions of the UV spectrum. […]
Glycation was first carried out by incubating protein (10 mg/ml) with 0.5 M ribose at 37° C. in 0.4 M phosphate buffer at pH 7.5 containing 0.2% sodium azide for 24 h in the absence of inhibitors. Glycation was then interrupted to remove excess and reversibly bound (Schiff base) sugar by extensive dialysis against frequent cold buffer changes at 4° C.

[2] = system: AGE formation in bovine serum albumin (BSA); experiment: Uninterrupted glycation of BSA with glucose, anti-AGE ELISA; type: biochemical; details: BSA 10 mg/ml, 1.0 M glucose, pH 7.5, 37° C., 6 weeks; inhibitors 3, 15 and 50 mM
Procedure: (§2) Uninterrupted Glycation with Glucose Bovine serum albumin, ribonuclease A, and human hemoglobin were incubated with glucose at 37° C. in 0.4 M sodium phosphate buffer of pH 7.5 containing 0.02% sodium azide. The protein, glucose (at 1.0 M), and prospective inhibitors (at 0.5, 3, 15 and 50 mM) were introduced into the incubation mixture simultaneously. Solutions were kept in the dark in capped tubes. Aliquots were taken and immediately frozen until analyzed by ELISA at the conclusion of the reaction. The incubations were for 3 weeks (Hb) or 6 weeks (RNase, BSA).
as §1
FIGS. 1 A-D are graphs which show the effect of vitamin B6 derivatives on post-Amadori AGE formation in bovine serum albumin glycated with glucose. BSA (10 mg/ml) was incubated with 1.0 M glucose in the presence and absence of the various indicated derivative in 0.4 M sodium phosphate buffer of pH 7.5 at 37° C. for 6 weeks. Aliquots were assayed by ELISA using R618 anti-AGE antibodies. Concentrations of the inhibitors were 3, 15 and 50 mM. Inhibitors used in FIGS. (1A) Pyridoxamine (PM); (1B) pyridoxal phosphate (PLP); (1C) pyridoxal (PL); (1D) pyridoxine (PN).
FIGS. 2A-D are graphs which show the effect of vitamin B1 derivatives and aminoguanidine (AG) on AGE formation in bovine serum albumin. BSA (10 mg/ml) was incubated with 1.0 M glucose in the presence and absence of the various indicated derivative in 0.4 M sodium phosphate buffer of pH 7.5 at 37° C. for 6 weeks. Aliquots were assayed by ELISA using R618 anti-AGE antibodies. Concentrations of the inhibitors were 3, 15 and 50 mM. Inhibitors used in FIGS. (2A) Thiamine pyrophosphate (TPP); (2B) thiamine monophosphate (TP); (2C) thiamine (T); (2D) aminoguanidine (AG).

[3] = system: AGE formation during uninterrupted glycation of ribonuclease A (RNase A) by ribose; experiment: Uninterrupted ribose glycation assay, RNase; type: biochemical, bovine; details: continuous 0.05 M ribose, 6 weeks, inhibitors 0.5-50 mM
Procedure: as §1
as §2, with “ribose glycation assays” for “Glycation with Glucose”, “ribose” for “glucose”, “protein (10 mg/ml or 1 mg/ml), 0.05 M ribose,” for “protein, glucose (at 1.0 M),”, “BSA). Glycation reactions were monitored for constant pH throughout the duration of the experiments.” for “BSA).”
The inhibitory effects of vitamin B1 and B6 derivatives on the kinetics of antigenic AGE formation were evaluated by polyclonal antibodies specific for AGEs. Initial inhibition studies were carried out on the glycation of bovine ribonuclease A (RNase) in the continuous presence of 0.05 M ribose, which is the concentration of ribose where the rate of AGE formation is near maximal.

[4] = system: AGE formation during uninterrupted glycation of bovine serum albumin (BSA) by ribose; experiment: Uninterrupted ribose glycation assay, BSA; type: biochemical; details: 0.05 M ribose, 6 weeks, inhibitors 0.5-50 mM
Procedure: as §1
as §2, with “ribose glycation assays” for “Glycation with Glucose”, “ribose” for “glucose”, “protein (10 mg/ml or 1 mg/ml), 0.05 M ribose,” for “protein, glucose (at 1.0 M),”, “BSA). Glycation reactions were monitored for constant pH throughout the duration of the experiments.” for “BSA).”

[5] = system: Sprague-Dawley rats, glomerular changes; type: in vivo, rat; details: n = 4
Procedure: Male Sprague-Dawley rats (Sasco, 100 g) were used. After a 1 week adaptation period, rats were placed in metabolic cages to obtain a 24 hour urine specimen for 2 days before administration of injections. Rats were then divided into experimental and control groups and given tail vein injections with either saline, unmodified RSA (50 mg/kg), Amadori-RSA (50 mg/kg), NaBH4-reduced Amadori-RSA (50 mg/kg), or AGE-RSA (50 mg/kg).
Rats injected with Amadori-RSA and AGE-RSA were then either left untreated, or further treated by the administration of either aminoguanidine (AG; 25 mg/kg), pyridoxamine (PM; 25 mg/kg), or a combination of AG and PM (10 mg/kg each) through the drinking water. Body weight and water intake of the rats were monitored weekly in order to adjust dosages. At the conclusion of the experimental study the rats were placed in metabolic cages to obtain 24 hour urine specimen for 2 days prior to sacrificing the animals.
After perfusion with saline, kidney sections were fixed in ice-cold 10% neutral buffered formalin. Paraffin-embedded tissue sections from all rat groups (n=4 per group) were processed for staining with Harris' alum hematoxylin and eosin (H&E), perodic acid/Schiff reagent (PAS), and alcian blue (pH 1.0 and pH 2.5) stains for histological examination. The alcian blue sections were scored by two investigators in a blinded fashion.
Parrafin-embedded sections were deparaffinized and then blocked with 10% goat serum in PBS for 30 min at room temperature. […] The sections were then rinsed for 30 min with PBS in the dark, mounted in aqueous mounting media for immunocytochemistry (Biomeda), and cover slipped. Sections were scored in a blinded fashion. Kidney sections were evaluated by the number and intensity of glomerular staining in 5 regions around the periphery of the kidney. Scores were normalized for the immunofluorescent score per 100 glomeruli with a scoring system of 0-3.
All animals studies were carried out in conformance with institutional guidelines for animal research protocols. Male Sprague-Dawley 100 g rats (Sasco Co., Omaha Nebr.) were used in these studies. After a 1 week adaptation period, rats were placed in metabolic cages for 2 days to get two 24 hour urine specimens before starting treatment. Rats were then given daily single tail vein injections for 6 weeks according to the following treatment groups: saline, unmodified RSA (50 mg/kg), Amadori-RSA (50 mg/kg), NaBH4-reduced Amadori-RSA (50 mg/kg), and AGE-RSA (50 mg/kg). Groups of rats injected with Amadori-RSA or AGE-RSA were also administered aminoguanidine (25 mg/kg/day), pyridoxamine (25 mg/kg/day), a combination of the two (10 mg/kg/day each), or with nothing added to the drinking water. Body weight and water intake of the rat were monitored weekly in order to adjust dosages. At the conclusion of the study, the rats were placed in metabolic cages for two days to get two 24 hour urine specimens before sacrificing the animals.
Total protein in urine was determined by Bio-Rad assay. Albumin in urine was determined by competitive ELISA using rabbit anti-rat serum albumin (Cappell) as primary antibody (1:2000) and goat anti-rabbit IgG (Sigma) as a secondary antibody (1:2000). Urine was tested with Multistix 8 SG (Miles) for glucose, ketone, specific gravity, blood, pH, protein, nitrite and leukocytes. Creatinine measurements were performed with a Beckman creatinine analyzer II. Intracardiac blood samples were collected before termination and were used in the determination of creatinine clearance, blood glucose (glucose oxidase, Sigma), fructosamine (nitroblue tetrazolium, Sigma), and glycated Hb (Glycotest II analytical boronate columns, Pierce).
After perfusion with saline, kidney sections were fixed in ice-cold 10% neutral buffered formalin. […]

[6] = RNase, 24 h in 0.5 M ribose, then free ribose removed, 37° C.
[7] = 6 weeks, average with standard error

Row | Molecule | inhibition of post-Amadori AGE formation ([1]; up to 50 mM, protein not stated (FIG. 21)) | inhibition of antigenic AGE formation (ELISA) [2] | inhibition of overall kinetics of AGE formation from ribose [3] | inhibition of overall kinetics of AGE formation from ribose [4] | inhibition of post-Amadori AGE formation [1, 6] | Alcian Blue pH 2.5, scoring of glomerular staining (acidic glycosaminoglycans) [5, 7] | HS core protein (Ab BL-31), scoring of glomerular staining [5, 7] | Creat C-6wk ([5]; creatinine clearance at 6 weeks)
1 | CC(=O)N[C@@H](CCCCN)C(=O)O [N^60 -acetyl-L-lysine, N^α-acetyl-L-lysine] | failed to exhibit any significant inhibition of AGE formation | – | – | – | – | – | – | –
2 | Cc1ncc(COP(=O)(O)O)c(C=O)c1O [pyridoxal phosphate, pyridoxal-5′-phosphate] | – | strongly suppressed antigenic AGE formation at even the lowest concentrations tested | significantly inhibited the rate of AGE formation on RNase at concentrations of 50 mM and 15 mM | mostly inhibited the rate of AGE formation, but not the final levels of AGE formed | showed significant inhibition at 15 mM | – | – | –
3 | Cc1ncc(CO)c(C=O)c1O [pyridoxal] | – | effective above 15 mM | significantly inhibited the rate of AGE formation on RNase at concentrations of 50 mM and 15 mM | mostly inhibited the rate of AGE formation, but not the final levels of AGE formed | did not show any significant inhibition at 15 mM | – | – | –
4 | B1 | – | – | – | – | – | 1.81 ± 0.47 | 203 ± 14 | 0.86 ± 0.07 ml/(min*100g)
